Measurements as given in US20100267784A1, “NOVEL 4,5-DIHYDROISOXAZOLES WITH ESTROGENIC ACTIVITY” (priority 2007, published 2010).

Columns and labels:
[1] = target: T1, ERβ (Homo sapiens, UniProt Q92731); experiment: ERβ reporter (luciferase) transactivation assay in transfected HEK293 cells; type: cell-based; set-up: expressed in transfected cells; host or cells: HEK293; details: sample concentration 10 μM, 24 hours, mean of at least three independent transfections
Summary of the method: (§1)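 HEK293 cells in phenol-free DMEM with 5% delipidated FBS were calcium-phosphate transfected for 4 h with ERα or ERβ vector, pERE2TATA-LUC reporter and pCMVβ control. Test compound (10 μM) or vehicle was applied for 24 h, then luciferase and β-galactosidase were measured. Values are means ±SEM of ≥3 transfections.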

[2] = target: T2, ERα (Homo sapiens, UniProt P03372); experiment: ERα antagonism reporter (luciferase) assay in transfected COS-1 cells; type: cell-based; set-up: expressed in transfected cells; host or cells: COS-1; details: sample concentration 10 μM with 100 nM E2, complete antagonism corresponding to 5.7, 18 hours
T2 sequence (P03372 1-595): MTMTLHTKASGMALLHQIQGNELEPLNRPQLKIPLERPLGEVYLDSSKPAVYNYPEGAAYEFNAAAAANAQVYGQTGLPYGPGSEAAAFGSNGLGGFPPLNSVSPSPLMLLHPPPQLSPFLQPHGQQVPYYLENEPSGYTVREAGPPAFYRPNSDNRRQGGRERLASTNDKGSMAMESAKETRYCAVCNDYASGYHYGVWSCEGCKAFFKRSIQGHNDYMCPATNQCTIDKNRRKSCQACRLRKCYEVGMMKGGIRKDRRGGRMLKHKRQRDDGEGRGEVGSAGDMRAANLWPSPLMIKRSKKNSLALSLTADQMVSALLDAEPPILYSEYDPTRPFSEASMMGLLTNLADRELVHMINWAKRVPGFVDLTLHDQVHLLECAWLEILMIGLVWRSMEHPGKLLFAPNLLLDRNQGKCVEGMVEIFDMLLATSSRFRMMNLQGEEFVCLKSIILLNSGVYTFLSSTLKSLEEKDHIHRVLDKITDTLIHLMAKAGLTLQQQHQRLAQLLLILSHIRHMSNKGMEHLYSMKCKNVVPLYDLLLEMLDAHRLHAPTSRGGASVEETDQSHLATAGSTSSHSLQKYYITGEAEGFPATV
Method: Determination of the Antiestrogen Activity of the Compounds.
One day before transfection, COS-1 cells were seeded into 1 ml of DMEM (Dulbecco's modified Eagle medium, Gibco) with 10% delipidated fetal bovine serum and 0,25% (vol/vol) Penicillin-Streptomysin (Euroclone) at a density of 70×10^3 cells/well. […] After transfection, the cells received treatment with test compounds giving a final concentration of 10 μM for each compound. In the antagonist test the wells were also treated with 10^−7 M estradiol. After 18 hours, the cells were washed, lysed and assayed for luciferase and normalization for β-galactosidase activities and protein concentrations. The cells were washed with 100 μl of cold phosphate buffered saline (PBS), lysed with 35 μl 1× Reporter lysis Buffer (Promega) and frosted (−70° C.) for 30 minutes. Cell lysates were placed in 1.5 ml of propylene centrifuge tubes and centrifuged with 13200 g for 5 min in room temperature. For β-galactosidase assay 10 μl of supernatant from each cell extract was transferred to a 96-well plate (96 well Elisa Microplates, PS, Microcon) and incubated for 10 min at 37° C. with 65 μl of reaction mixture consisting 0.76 gl 100×Mg-buffer, 12.5 μl ONPG (4 mg/ml), and 54.3 μl of sodium-phosphate buffer (pH 7). The reaction was stopped with treatment of 125 μl Na2CO3. […] For the study of protein concentrations 5 μl of the supernatant was transferred to a 96-well plate (96 well Elisa Microplates, PS, Microcon) and mixed with 200 μl of 1× Bio-rad protein assay reagent. The luciferase activities were measured with Thermo Luminoscan Ascent scanner and the protein concentrations and β-galactosidase activities with Thermo Labsystem Multiscan Ex scanner. Also blank and control samples were measured. During the maintenance, transfection, and treatment with tested compounds the cells were incubated in humidified atmosphere with 5% carbon dioxide at 37° C.

[3] = target: T2, ERα; experiment: ERα reporter (luciferase) transactivation assay in transfected HEK293 cells; type: cell-based; set-up: expressed in transfected cells; host or cells: HEK293; details: sample concentration 10 μM, 24 hours, mean of at least three independent transfections
Summary of the method: as §1

[4] = target: T2, ERα; experiment: Competitive binding against [6,7-3H(N)]estradiol in COS-1 cells transfected with human ERα; details: for IC50: ERα IC50, COS-1 cells, competition against labeled E2, 2 hours at 37° C.; for ERα RBA (relative binding affinity): relative to E2 = 100.0
Method: (§2) Determination of Relative Binding Affinity (RBA).
(§3) Relative binding affinities (RBA) were measured by a competitive assay against [6,7-^3H(N)]estradiol (PerkinElmer) in transsiently transfected COS-1 cells. […] After 2 hours of incubation at 37° C. the medium was removed. The cells were removed from the wells to 150 μl of 1× phosphate buffered saline (PBS), transferred to Eppendorf tubes and centrifuged at 4° C. using 4000 g for 5 min, and then washed twice with 150 μl of PBS. The cell pellets were dissolved to 50 μl of 0.5M NaOH and incubated for 15 min at 56° C., after which the samples were transferred to liquid twinkle tubes and treated with 3 ml of OptiPhase HiSafe 3 twinkle solution (PerkinElmer).

[5] = target: T1, ERβ; experiment: Competitive binding against [6,7-3H(N)]estradiol in COS-1 cells transfected with human ERβ; details: for IC50: ERβ IC50, COS-1 cells, competition against labeled E2, 2 hours at 37° C.; for ERβ RBA (relative binding affinity): relative to E2 = 100.0
Method: as §2, §3

T1 sequence (Q92731 whole entry): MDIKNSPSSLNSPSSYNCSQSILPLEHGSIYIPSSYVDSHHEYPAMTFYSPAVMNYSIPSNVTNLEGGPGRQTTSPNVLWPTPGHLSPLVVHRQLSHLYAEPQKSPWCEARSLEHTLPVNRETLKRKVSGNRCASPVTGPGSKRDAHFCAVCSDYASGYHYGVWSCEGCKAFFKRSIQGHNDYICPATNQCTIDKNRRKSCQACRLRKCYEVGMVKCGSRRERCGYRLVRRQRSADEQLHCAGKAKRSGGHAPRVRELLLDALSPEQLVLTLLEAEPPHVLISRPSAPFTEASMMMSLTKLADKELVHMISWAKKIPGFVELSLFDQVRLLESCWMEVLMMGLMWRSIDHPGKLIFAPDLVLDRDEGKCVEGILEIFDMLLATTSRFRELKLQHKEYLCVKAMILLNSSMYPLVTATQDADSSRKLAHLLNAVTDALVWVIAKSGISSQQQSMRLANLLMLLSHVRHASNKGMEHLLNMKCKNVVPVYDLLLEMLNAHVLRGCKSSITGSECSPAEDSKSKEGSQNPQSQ

ERβ receptor activation relative to 10 nM E2 corresponding 100 [1]	ERα receptor antagonism relative to 100 nM E2 corresponding 100 [2]	ERα receptor activation relative to 10 nM E2 corresponding 100 [3]	IC50 [4]	ERα RBA (relative binding affinity) [4]	IC50 [5]	ERβ RBA (relative binding affinity) [5]	Structure (SMILES)
0.2%	93.6	4.8%	–	–	–	–	Oc1ccc(CC2=NOC(c3ccccc3)C2)cc1 (single isomer, unassigned) [84a, 3-(4-Hydroxy-benzyl)-5-phenyl-4,5-dihydro-isoxazole]
18.5%	64.5	7.6%	–	–	–	–	Oc1ccc(CC2=NOC(c3ccccc3)C2)cc1 (single isomer, unassigned) [84b, 3-(4-Hydroxy-benzyl)-5-phenyl-4,5-dihydro-isoxazole]
−0.4%	95.6	11.8%	–	–	–	–	CC1(c2ccccc2)CC(CCc2ccccc2O)=NO1 (single isomer, unassigned) [85a, 3-[2-(2-Hydroxy-phenyl)-ethyl]-5-methyl-5-phenyl-4,5-dihydro-isoxazole]
30.0%	57.9	21.7%	–	–	–	–	CC1(c2ccccc2)CC(CCc2ccccc2O)=NO1 (single isomer, unassigned) [85b, 3-[2-(2-Hydroxy-phenyl)-ethyl]-5-methyl-5-phenyl-4,5-dihydro-isoxazole]
0.5%	87.3	21.6%	–	–	–	–	CC1(c2ccccc2)CC(CCc2cccc(O)c2)=NO1 (single isomer, unassigned) [86a, 3-[2-(3-Hydroxy-phenyl)-ethyl]-5-methyl-5-phenyl-4,5-dihydro-isoxazole]
−2.9%	101.8	7.1%	–	–	–	–	CC1(c2ccccc2)CC(CCc2cccc(O)c2)=NO1 (single isomer, unassigned) [86b, 3-[2-(3-Hydroxy-phenyl)-ethyl]-5-methyl-5-phenyl-4,5-dihydro-isoxazole]
18.0%	63.1	39.7%	–	–	–	–	CC1(c2ccccc2)CC(CCc2ccc(O)cc2)=NO1 (single isomer, unassigned) [87a, 3-[2-(4-Hydroxy-phenyl)-ethyl]-5-methyl-5-phenyl-4,5-dihydro-isoxazole]
37.4%	55.0	18.7%	–	–	–	–	CC1(c2ccccc2)CC(CCc2ccc(O)cc2)=NO1 (single isomer, unassigned) [87b, 3-[2-(4-Hydroxy-phenyl)-ethyl]-5-methyl-5-phenyl-4,5-dihydro-isoxazole]
143.1%	–	171.1%	0.215 µM	0.912%	1.25 µM	0.157%	Oc1ccc(CCC2=NOC(Cc3ccccc3)C2)cc1 (single isomer, unassigned) [93a, 5-Benzyl-3-[2-(4-hydroxy-phenyl)-ethyl]-4,5-dihydro-isoxazole]
41.5%	–	24.3%	2.15 µM	0.091%	1.09 µM	0.180%	Oc1ccc(CCC2=NOC(Cc3ccccc3)C2)cc1 (single isomer, unassigned) [93b, 5-Benzyl-3-[2-(4-hydroxy-phenyl)-ethyl]-4,5-dihydro-isoxazole]
1.3%	115.2	0.3%	–	–	–	–	Oc1ccc(CCCC2=NOC(Cc3ccccc3)C2)cc1O (single isomer, unassigned) [102a, 5-Benzyl-3-[3-(3,4-dihydroxy-phenyl)-propyl]-4,5-dihydro-isoxazole]
−1.3%	104.8	2.1%	–	–	–	–	Oc1ccc(CCCC2=NOC(Cc3ccccc3)C2)cc1O (single isomer, unassigned) [102b, 5-Benzyl-3-[3-(3,4-dihydroxy-phenyl)-propyl]-4,5-dihydro-isoxazole]
17.2%	–	11.5%	5.6 µM	0.035%	5.4 µM	0.036%	c1ccc(CCCC2=NOC(c3ccccc3)C2)cc1 (single isomer, unassigned) [113b, 5-Phenyl-3-(3-phenyl-propyl)-4,5-dihydro-isoxazole]
–	132.9	–	–	–	–	–	Oc1ccc(CCCC2=NOC(Cc3ccccc3)C2)cc1 (centres unmarked) [99ab, 5-Benzyl-3-[3-(4-hydroxy-phenyl)-propyl]-4,5-dihydro-isoxazole]
–	39.4	–	–	–	–	–	Oc1ccc(CCCC2=NOC(Cc3ccc(O)cc3)C2)cc1 (centres unmarked) [101ab, 5-(4-Hydroxy-benzyl)-3-[3-(4-hydroxy-phenyl)-propyl]-4,5-dihydro-isoxazole]
